Laboratory results as given in patent US6815546B2, “Analogues of camptothecin, their use as medicaments and the pharmaceutical compositions containing them” (Societe de Recherches et d'Applications Scientifiques …, priority 1995, dated 2004).

system: Adenocarcinoma HT29 cells from the human colon; assay: Adenocarcinoma HT29 cell proliferation, WST1 (compounds in DMA); format: cell-based; conditions: 72 hours, final DMA 0.1% (v/v)
Experimental: c. Adenocarcinoma HT29 cells from the human colon are cultured in a single layer at 37° in a humidified atmosphere containing 95% of air and 5% of CO2, in a modified essential Earle's medium at 4.5 g/l (Gibco, Paisley, United Kingdom); completed with 10% of inactivated foetal calf serum, 2 mM of glutamine, and 50 μg/ml of gentamycin (Gibco, Paisley, United Kingdom).
Approximately 2000 cells are seeded with the culture medium above in the wells of a microplate (96 wells, flat-bottomed) and incubated for 24 hours. Solutions in N,N-dimethyl-acetamide (DMA) of each of the examples of the invention, diluted in the culture medium so that the final concentration of DMA is 0.1% (v/v), are added to the plate cultures in order to obtain final concentration ranges from 1×10^−13 to 1×10^−5 M, and the cells are incubated for 72 hours.
The WST1 staining reagent, (Boehringer Mannheim, Germany) is then added to each well at a final concentration of 9%, and the cells are incubated for 2 hours at 37° C. This stage allows the mitochondrial deshydrogenase of the living cells to convert WST1 orange tetrazolium salt into crimson formazan. The resulting stained solutions are quantified by dual-beam detection ([…]) using a multi-cuvette scanning spectrophotometer.
The results shown in the following table III C) are expressed in terms of inhibitory concentration at 50% (IC50, in nM), accompanied by a confidence interval.

Structure (SMILES)	IC50 [nM]
CC[C@@]1(O)CC(=O)OCc2c1cc1n(c2=O)Cc2c-1nc1cc(F)ccc1c2-c1ccc(OC(F)(F)F)cc1 [Example 166, (5R)-5-ethyl-9-fluoro-5-hydroxy-12-(4-trifluoromethoxyphenyl)-4,5,13,15-tetrahydro-1H,3H-oxepino[3′,4′:6,7]indolizino[1,2-b]quinoleine-3,15-dione]	8.9
CC[C@@]1(O)CC(=O)OCc2c1cc1n(c2=O)Cc2c-1nc1cc(F)ccc1c2CC(C)C [Example 162, (5R)-5-ethyl-9-fluoro-5-hydroxy-12-isobutyl-4,5,13,15-tetrahydro-1H,3H-oxepino[3′,4′:6,7]indolizino[1,2-b]quinoleine-3,15-dione]	12
CC[C@@]1(O)CC(=O)OCc2c1cc1n(c2=O)Cc2c-1nc1cc(F)ccc1c2-c1ccc(C(F)(F)F)cc1 [Example 165, (5R)-5-ethyl-9-fluoro-5-hydroxy-12-(4-trifluoromethylphenyl)-4,5,13,15-tetrahydro-1H,3H-oxepino[3′,4′:6,7]indolizino[1,2-b]quinoleine-3,15-dione]	1.7
CCCc1c2c(nc3cc(F)cc(F)c13)-c1cc3c(c(=O)n1C2)COC(=O)C[C@]3(O)CC [Example 169, (5R)-5-ethyl-9,11-difluoro-5-hydroxy-12-propyl-4,5,13,15-tetrahydro-1H,3H-oxepino[3′,4′:6,7]indolizino[1,2-b]quinoleine-3,15-dione]	2.3
CC[C@@]1(O)CC(=O)OCc2c1cc1n(c2=O)Cc2c-1nc1cc(F)ccc1c2-c1ccc(N(C)C)cc1 [Example 167, (5R)-12-(4-dimethylaminophenyl)-5-ethyl-9-fluoro-5-hydroxy-4,5,13,15-tetrahydro-1H,3H-oxepino[3′,4′:6,7]indolizino [1,2-b]quinoleine-3,15-dione]	13
CC[C@@]1(O)CC(=O)OCc2c1cc1n(c2=O)Cc2c-1nc1cc(F)ccc1c2CC(C)(C)C [Example 163, (5R)-5-ethyl-9-fluoro-5-hydroxy-12-neopentyl-4,5,13,15-tetrahydro-1H,3H-oxepino[3′,4′:6,7]indolizino[1,2-b]quinoleine-3,15-dione]	6
CCOCCc1c2c(nc3cc(F)cc(F)c13)-c1cc3c(c(=O)n1C2)COC(=O)C[C@]3(O)CC [Example 170, (5R)-12-(2-ethoxyethyl)-5-ethyl-9,11-difluoro-5-hydroxy-4,5,13,15-tetrahydro-1H,3H-oxepino[3′,4′:6,7]indolizino[1,2-b]quinoleine-3,15-dione]	0.85
CC[C@@]1(O)CC(=O)OCc2c1cc1n(c2=O)Cc2c-1nc1cc(F)ccc1c2-c1cccc(F)c1 [Example 164, (5R)-5-ethyl-9-fluoro-12-(3-fluorophenyl)-5-hydroxy-4,5,13,15-tetrahydro-1H,3H-oxepino[3′,4′:6,7]indolizino[1,2-b]quinoleine-3,15-dione]	2.7

same assay, conditions: Homo sapiens, HT-29, 72 hours, final DMA 0.1% (v/v)

Structure (SMILES)	IC50 [nM]
CCc1c2c(nc3cc(F)ccc13)-c1cc3c(c(=O)n1C2)COC(=O)C[C@]3(O)CC [Example 106, (5R)-5,12-diethyl-9-fluoro-5-hydroxy-4,5,13,15-tetrahydro-1H,3H-oxepino[3′,4′:6,7]indolizino[1,2-b]quinoline-3,15-dione]	3.5
CC[C@@]1(O)CC(=O)OCc2c1cc1n(c2=O)Cc2c-1nc1ccccc1c2CC[Si](C)(C)C [Example 104, (5R)-5-ethyl-5-hydroxy-12-(2-trimethylsilylethyl)-4,5,13,15-tetrahydro-1H,3H-oxepino[3′,4′:6,7]indolizino[1,2-b]quinoline-3,15-dione]	8.6
CC[C@@]1(O)CC(=O)OCc2c1cc1n(c2=O)Cc2c-1nc1cc(F)ccc1c2-c1cc(F)cc(F)c1 [Example 117, (5R)-12-(3,5-difluorophenyl)-5-ethyl-9-fluoro-5-hydroxy-4,5,13,15-tetrahydro-1H,3H-oxepino[3′,4′:6,7]indolizino[1,2-b]quinoline-3,15-dione]	0.25
CCCCc1c2c(nc3cc(F)c(F)cc13)-c1cc3c(c(=O)n1C2)COC(=O)C[C@]3(O)CC [Example 95, (5R)-12-butyl-5-ethyl-9,10-difluoro-5-hydroxy-4,5,13,15-tetrahydro-1H,3H-oxepino[3′,4′:6,7]indolizino[1,2-b]quinoline-3,15-dione]	8.5
CCCCc1c2c(nc3cc(F)ccc13)-c1cc3c(c(=O)n1C2)COC(=O)C[C@]3(O)CC [Example 105, (5R)-12-butyl-5-ethyl-9-fluoro-5-hydroxy-4,5,13,15-tetrahydro-1H,3H-oxepino[3′,4′:6,7]indolizino[1,2-b]quinoline-3,15-dione]	9.5
CCc1c2c(nc3cc(F)c(F)cc13)-c1cc3c(c(=O)n1C2)COC(=O)C[C@]3(O)CC [Example 98, (5R)-5,12-diethyl-9,10-difluoro-5-hydroxy-4,5,13,15-tetrahydro-1H,3H-oxepino[3′,4′:6,7]indolizino[1,2-b]quinoline-3,15-dione]	2.1
CC[C@@]1(O)CC(=O)OCc2c1cc1n(c2=O)Cc2c-1nc1cc(F)ccc1c2-c1ccc(F)cc1 [Example 115, (5R)-5-ethyl-9-fluoro-12-(4-fluorophenyl)-5-hydroxy-4,5,13,15-tetrahydro-1H,3H-oxepino[3′,4′:6,7]indolizino[1,2-b]quinoline-3,15-dione]	0.26
CCCc1c2c(nc3cc(F)c(F)cc13)-c1cc3c(c(=O)n1C2)COC(=O)C[C@]3(O)CC [Example 97, (5R)-5-ethyl-9,10-difluoro-5-hydroxy-12-propyl-4,5,13,15-tetrahydro-1H,3H-oxepino[3′,4′:6,7]indolizino[1,2-b]quinoline-3,15-dione]	11
CCc1c2c(nc3ccccc13)-c1cc3c(c(=O)n1C2)COC(=O)C[C@]3(O)CC [Example 88, (5R)-5,12-diethyl-5-hydroxy-4,5,13,15-tetrahydro-1H,3H-oxepino[3′,4′:6,7]indolizino[1,2-b]quinoline-3,15-dione]	12
CC[C@@]1(O)CC(=O)OCc2c1cc1n(c2=O)Cc2c-1nc1ccccc1c2-c1ccccc1 [Example 89, (5R)-5-ethyl-5-hydroxy-12-phenyl-4,5,13,15-tetrahydro-1H,3H-oxepino[3′,4′:6,7]indolizino[1,2-b]quinoline-3,15-dione]	13
CC[C@@]1(O)CC(=O)OCc2c1cc1n(c2=O)Cc2c-1nc1ccccc1c2-c1ccc(C)cc1 [Example 91, (5R)-5-ethyl-5-hydroxy-12-(4-methylphenyl)-4,5,13,15-tetrahydro-1H,3H-oxepino[3′,4′:6,7]indolizino[1,2-b]quinoline-3,15-dione]	11
CC[C@@]1(O)CC(=O)OCc2c1cc1n(c2=O)Cc2cc3c(F)cc(F)cc3nc2-1 [Example 100, (5R)-5-ethyl-9,11-difluoro-5-hydroxy-4,5,13,15-tetrahydro-1H,3H-oxepino[3′,4′:6,7]indolizino[1,2-b]quinoline-3,15-dione]	2.2
CC[C@@]1(O)CC(=O)OCc2c1cc1n(c2=O)Cc2c-1nc1cc(F)c(F)cc1c2-c1ccccc1 [Example 93, (5R)-5-ethyl-9,10-difluoro-5-hydroxy-12-phenyl-4,5,13,15-tetrahydro-1H,3H-oxepino[3′,4′:6,7]indolizino[1,2-b]quinoline-3,15-dione]	12
CC[C@@]1(O)CC(=O)OCc2c1cc1n(c2=O)Cc2c-1nc1cc(F)c(F)cc1c2CC[Si](C)(C)C [Example 99, (5R)-5-ethyl-9,10-difluoro-5-hydroxy-1 2-(2-trimethylsilylethyl)-4,5,13,15-tetrahydro-1H,3H-oxepino[3′,4′:6,7]indolizino[1,2-b]quinoline-3,15-dione]	5
